In patent US20120329770A1, “CEPHALOSPORIN DERIVATIVES USEFUL AS BETA-LACTAMASE INHIBITORS AND COMPOSITIONS AND METHODS OF USE THEREOF” (priority 2010, published 2012) one finds IC50 data, which are given here for 1 compound.

For orientation: IC50 means the concentration needed to halve the response being measured.

Experiment in all cases: Inhibition of β-lactamases, nitrocefin hydrolysis
What all share (assay type): biochemical

Assay [1] concerns the target T1, class A β-lactamase KPC-2 (Klebsiella pneumoniae, UniProt Q9F663).
T1 construct: calculated for a mature protein with a 24 amino acid signal peptide removed; made in house; host or cells: Escherichia coli DH5α (pBR322-catI-blaKPC-2)
The note with it: nitrocefin 100 μM, 10 min pre-incubation. As for the experimental part: The KPC-2 β-lactamase was purified from Escherichia coli DH5α strain containing the plasmid, pBR322-catI-blaKPC-2, which was kindly provided by Prof. F. van den Akker (Case Western Reserve University). Expression and purification of the enzyme was similar to that reported by Ke et al. (Biochemistry 2007, 46, 5732-5740). A molecular weight of 28,472 Da for the purified KPC-2 was determined by ESI MS. This is in close agreement with that calculated for a mature protein with a 24 amino acid signal peptide removed.
(§1) Assay conditions for IC50 determinations involved enzyme concentrations ranging between 2 and 6 nM. The concentration used for the nitrocefin substrate was 100 μM. Assays with OXA-10 and OXA-45 were conducted at pH 7.0 with 100 mM sodium phosphate buffer containing 25 mM sodium bicarbonate. Assays with KPC-2 and GC1 were performed at pH 7.0 in 50 mM HEPES buffer and assays with IMP-1 and VIM-2 were performed in the same buffer with the addition of 500 mM NaCl and 1 μM ZnSO4. BSA was used with all enzymes (except OXA-10 and KPC-2) at concentrations of 0.5-1.0 μg/mL.
(§2) Inhibitors were pre-incubated for 10 minutes at room temperature with enzyme assay solutions prior to the addition of the nitrocefin. […] Enzymatic activity was determined using the initial rate of increase in absorbance at 482 nm

For assay [2], the target named is T2, IMP-1 metallo-β-lactamase (Serratia marcescens, UniProt P52699).
T2 construct: made in house; host or cells: Escherichia coli BL21(DE3) carrying pCIP4
Text: IMP-1 metallo-β-lactamase was expressed in Esherichia coli BL21(DE3) carrying pCIP4 and purified as reported by Laraki et al. (Antimicrob. Agents Chemother. 1999, 43, 902-906). The homogeneity of the protein was confirmed by SDS-PAGE according to the method of Laemmli (Nature 1970, 227, 680-685). The molecular weight of purified IMP-1, Mr=25,112±0.5 Da, as determined by ESI-MS, was in agreement with that deduced from its amino acid sequence (Laraki et al. Antimicrob. Agents Chemother. 1999, 43, 890-901).
as §1
(§3) Inhibitors were pre-incubated for 10 minutes at room temperature with enzyme assay solutions prior to the addition of the nitrocefin. These compounds were dissolved in DMSO and prepared at various concentrations such that the final concentration of DMSO was 1% during the pre-incubation. The reaction was initiated by the addition of the pre-incubated enzyme-cyclobutanone solution (90 μL) to a solution of nitrocefin in buffer (10 μL). Enzymatic activity was determined using the initial rate of increase in absorbance at 482 nm

Assay [3] deals with T3, VIM-2 metallo-β-lactamase (Pseudomonas aeruginosa, UniProt Q9K2N0).
T3 construct: made in house; host or cells: Escherichia coli BL21 (DE3) pLysS carrying pNOR2001
The following applies: nitrocefin 100 μM, 10 min pre-incubation; read-out: IC50 VIM-2 (Class B). The protocol: VIM-2 metallo-β-lactamase was expressed in Escherichia coli BL21 (DE3) pLysS carrying pNOR2001 (a generous gift from P. Nordmann, Université Paris XI, France) and purified as reported by Poirel et al. (Antimicrob. Agents Chemother. 2000, 44, 891-897). The homogeneity and molecular weight of the mature VIM-2 (29.7 kDa) was determined by SDS-PAGE (Laemmli, U. K. Nature 1970, 227, 680-685). Enzyme concentration was determined from the absorbance at 280 nm (εEM=32,000 M^−1 cm^−1).
as §1, §2

Assay [4] has as its target class B β-lactamase NDM-1 (Klebsiella pneumoniae, UniProt C7C422). The following applies: 15 μM nitrocefin.
For assay [5], the target named is T4, class C β-lactamase GC1 (Enterobacter cloacae, UniProt Q59401).
T4 construct: made in house; host or cells: Escherichia coli AS226-51 harbouring pCS100
The note with it: nitrocefin 100 μM, 10 min pre-incubation. The protocol: GC1 β-lactamase was purified from Escherichia coli AS226-51 harbouring pCS100, which was a generous gift from Prof. M. Nukaga (Josai International University, Japan). The cell culture was harvested and subjected to a stringent periplasmic lysis protocol according to Crichlow et al. (Biochemistry 1999, 38, 10256-10261.). Purification proceeded similarly to Nukaga et al. (J. Biol. Chem. 2004, 279, 9344-9352.) with cation exchange chromatography (CM Sephadex C-50) equilibrated with 10 mM sodium phosphate buffer (pH 6), followed by elution with a stepwise gradient of increasing NaCl concentration. Fractions containing β-lactamase activity were then applied to a phenylboronate column (MoBiTec, Germany), equilibrated with 20 mM triethanolamine.HCl, pH 7.0, 0.5 M NaCl. The column was washed with the same buffer and then eluted with sterile 0.5 M borate buffer, pH 7.0, 0.5 M NaCl. Active fractions eluted from the phenylboronate column were analyzed for purity via SDS-PAGE, pooled, and concentrated before buffer exchange to 100 mM sodium phosphate, pH 7.0.
(§4) Assay conditions for IC50 determinations involved enzyme concentrations ranging between 2 and 6 nM. […]
as §2

Assay [6] addresses T5, class D β-lactamase OXA-10 (Pseudomonas aeruginosa, UniProt P14489).
T5 construct: indicating a post-translational deletion of a 20 amino acid signal peptide; made in house; host or cells: Escherichia coli BL21 (DE3), pET24a-blaOXA-10, purified from culture supernatant
Text: OXA-10 β-lactamase was expressed and purified using a modified protocol of that reported by Golemi et al. (J. Am. Chem. Soc. 2000, 122, 6132-6133). The pET24a plasmid with the blaOXA-10 gene insert, a kind gift from Prof. S. Mobashery (Notre Dame University), was transformed into Escherichia coli BL21 (DE3) and induced with IPTG. Purification of the enzyme was achieved by the addition of ammonium sulfate to the induced culture supernatant. The protein precipitate collected (50-70% ammonium sulfate saturation) was dissolved and dialyzed against 10 mM Tris.SO4 buffer, pH 7.5, and further purified with a DE52 cellulose column (Whatman, UK) equilibrated with the same buffer. The material bound to the column was washed with 10 mM Tris.SO4 buffer, pH 7.5, followed by an elution with a K2SO4 gradient (0-100 mM). Protein fractions containing nitrocefin-hydrolyzing activity were concentrated and purity analyzed by SDS-PAGE. A molecular weight of 27,490 Da for OXA-10 was determined by ESI MS, indicating a post-translational deletion of a 20 amino acid signal peptide.
as §4, §2

Assay [7] concerns the target class D β-lactamase OXA-45 (Pseudomonas aeruginosa, UniProt Q7WZC7). The protocol: OXA-45 β-lactamase was purified in the laboratory of Prof. T. Walsh (University of Bristol, UK) according to the method published (Toleman, M. A.; Rolston, K.; Jones, R. N.; Walsh, T. R. Antimicrob. Agents Chemother. 2003, 47, 2859-2863) and provided to this laboratory as a kind gift.
as §1, §3

T2 sequence (P52699 19-246, looked up): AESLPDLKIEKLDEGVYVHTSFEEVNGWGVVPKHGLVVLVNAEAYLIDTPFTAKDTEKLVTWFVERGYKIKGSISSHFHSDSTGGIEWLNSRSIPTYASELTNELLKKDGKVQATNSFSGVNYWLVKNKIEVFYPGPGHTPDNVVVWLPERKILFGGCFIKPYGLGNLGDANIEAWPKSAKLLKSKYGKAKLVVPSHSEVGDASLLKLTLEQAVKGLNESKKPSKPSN
Sequence of class B β-lactamase NDM-1 (C7C422 29-270, looked up): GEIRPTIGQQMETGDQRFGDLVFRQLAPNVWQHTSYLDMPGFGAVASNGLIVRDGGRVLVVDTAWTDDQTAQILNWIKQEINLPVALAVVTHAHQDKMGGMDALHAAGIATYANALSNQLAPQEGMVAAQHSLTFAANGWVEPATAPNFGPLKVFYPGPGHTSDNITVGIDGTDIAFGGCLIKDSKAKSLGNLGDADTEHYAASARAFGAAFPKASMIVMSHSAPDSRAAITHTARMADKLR
T4 sequence (Q59401 entry or part of it): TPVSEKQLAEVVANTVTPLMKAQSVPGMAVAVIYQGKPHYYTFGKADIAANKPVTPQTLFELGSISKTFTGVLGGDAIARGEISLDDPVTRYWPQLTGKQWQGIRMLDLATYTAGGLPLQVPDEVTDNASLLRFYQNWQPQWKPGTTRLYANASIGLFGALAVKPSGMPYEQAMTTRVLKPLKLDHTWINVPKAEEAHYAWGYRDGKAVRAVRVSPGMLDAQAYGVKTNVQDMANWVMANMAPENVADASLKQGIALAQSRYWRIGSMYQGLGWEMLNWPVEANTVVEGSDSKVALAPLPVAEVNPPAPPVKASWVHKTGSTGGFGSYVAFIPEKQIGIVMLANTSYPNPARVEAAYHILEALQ
Sequence of class D β-lactamase OXA-45 (Q7WZC7 entry or part of it): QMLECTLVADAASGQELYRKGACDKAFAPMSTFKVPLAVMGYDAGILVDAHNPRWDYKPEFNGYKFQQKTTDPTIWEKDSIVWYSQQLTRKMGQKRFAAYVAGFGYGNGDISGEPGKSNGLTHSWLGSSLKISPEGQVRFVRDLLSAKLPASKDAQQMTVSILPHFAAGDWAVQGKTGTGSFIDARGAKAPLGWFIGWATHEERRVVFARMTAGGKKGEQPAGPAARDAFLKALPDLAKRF
T5 sequence (P14489 20-266): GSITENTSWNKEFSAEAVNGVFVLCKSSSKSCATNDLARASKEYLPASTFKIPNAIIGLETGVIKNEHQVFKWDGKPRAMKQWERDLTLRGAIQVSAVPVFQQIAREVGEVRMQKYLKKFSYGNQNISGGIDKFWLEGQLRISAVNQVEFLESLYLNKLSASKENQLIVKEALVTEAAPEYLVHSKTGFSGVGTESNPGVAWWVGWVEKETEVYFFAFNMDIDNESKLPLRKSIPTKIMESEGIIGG
T1 sequence (Q9F663 25-293, looked up): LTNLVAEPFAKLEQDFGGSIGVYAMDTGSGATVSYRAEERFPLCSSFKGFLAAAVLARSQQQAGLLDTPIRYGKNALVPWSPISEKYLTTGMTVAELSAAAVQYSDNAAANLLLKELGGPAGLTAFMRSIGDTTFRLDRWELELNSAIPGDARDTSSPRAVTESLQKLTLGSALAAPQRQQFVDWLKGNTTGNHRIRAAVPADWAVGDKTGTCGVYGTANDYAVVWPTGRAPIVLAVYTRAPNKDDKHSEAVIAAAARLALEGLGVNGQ

`O=C(Cc1cccs1)N[C@@H]1C(=O)N2C(C(=O)O)=C(CSC(=O)c3ccccc3)CS[C@H]12` [drawing 27]: the IC50 in assay [1] amounted to 71 µM; in assay [2], 3.1 µM; in assay [3] it was 1.8 µM; in assay [4], 33 µM; in assay [5], 140 µM; in assay [6], 8.1 µM. This compound came in with a half-maximal inhibitory concentration (IC50) in assay [7] of 24 µM.
